In ChEMBL document CHEMBL5154921, “Discovery and Characterization of the First Nonpeptide Antagonists for the Relaxin-3/RXFP3 System” (J Med Chem, 2022):
Calls of active or inactive are those of the source. No cut-off for these calls is given here.

Columns and labels:
[1] = target: 5-hydroxytryptamine receptor 2B (Homo sapiens) (UniProt P41595); assay: Inhibition of serotonin 5-HT2B receptor (unknown origin) at 10 uM relative to control
[2] = target: Sodium-dependent serotonin transporter (Homo sapiens) (UniProt P31645); assay: Inhibition of SERT receptor (unknown origin) at 10 uM relative to control
[3] = target: Sodium-dependent dopamine transporter (Homo sapiens) (UniProt Q01959); assay: Inhibition of DAT receptor (unknown origin) at 10 uM relative to control
[4] = Ratio of AUC in brain to plasma or Wistar rat at 10 mg/kg, ip measured upto 8 hrs post dose by LC-MS/MS analysis; format: ADME, organism-based
[5] = target: Beta-2 adrenergic receptor (Homo sapiens) (UniProt P07550); assay: Inhibition of adrenergic beta-2 receptor (unknown origin) at 10 uM relative to control
[6] = target: Relaxin-3 receptor 1 (Homo sapiens) (UniProt Q9NSD7); assay: Negative allosteric modulator activity at human RXFP3 expressed in CHO-K1 cells assessed as [35S]GTPgammaS binding at 10 to 30 uM incubated for 1 hr by [35S]GTP-gammaS binding assay; format: functional, cell-based; settings: filed as negative allosteric modulator, dose 10-30 µM
[7] = target: 5-hydroxytryptamine receptor 2C (Homo sapiens) (UniProt P28335); assay: Inhibition of 5HT2C receptor (unknown origin) at 10 uM relative to control
[8] = target: Alpha-1D adrenergic receptor (Homo sapiens) (UniProt P25100); assay: Inhibition of adrenergic alpha-1D receptor (unknown origin) at 10 uM relative to control
[9] = Apparent permeability of the compound across apical to basolateral side in MDCK-MDRI cells measured upto 90 min by LC-MS/MS analysis; format: ADME, cell-based, Canis lupus familiaris; settings: dog, mdck-mdr1, 1.5 h
[10] = test system: Rattus norvegicus; assay: In vivo antagonist activity at RXFP3 in Wistar rat assessed as decrease in R3/I5 induced food intake at 10 mg/kg, ip administered 1 hr prior to R3/I5 treatment and measured after 2 hrs; format: functional, organism-based; settings: time 3.0 hrs
[11] = target: Relaxin-3 receptor 1 (Homo sapiens) (UniProt Q9NSD7); assay: Negative allosteric modulator activity at human RXFP3 expressed in CHO-K1 cells assessed as forskolin-induced cAMP accumulation at 3 to 30 uM measured after 30 mins in presence of relaxin-3 by TR-FRET assay; format: functional, cell-based; settings: filed as negative allosteric modulator, dose 3-30 µM
[12] = target: Alpha-2C adrenergic receptor (Homo sapiens) (UniProt P18825); assay: Inhibition of adrenergic alpha-2C receptor (unknown origin) at 10 uM relative to control
[13] = Half life in Wistar rat brain at 10 mg/kg, ip measured upto 8 hrs post dose by LC-MS/MS analysis; format: ADME, organism-based; settings: in vivo
[14] = target: 5-hydroxytryptamine receptor 7 (Homo sapiens) (UniProt P34969); assay: Inhibition of serotonin 5-HT7A receptor (unknown origin) at 10 uM relative to control
[15] = Tmax in Wistar rat brain at 10 mg/kg, ip measured upto 8 hrs post dose by LC-MS/MS analysis; format: ADME, organism-based; settings: in vivo
[16] = Cmax in Wistar rat brain at 10 mg/kg, ip measured upto 8 hrs post dose by LC-MS/MS analysis; format: ADME, organism-based; design: time < 8 hrs, dose 10 mg/kg, route ip
[17] = target: T1, Relaxin-3 receptor 1 (Homo sapiens, UniProt Q9NSD7); assay: Antagonist activity at human RXFP3 expressed in CHO-K1 cells assessed as [35S]GTPgammaS binding incubated for 1 hr by [35S]GTP-gammaS binding assay; format: functional, cell-based
T1 sequence (Q9NSD7 whole entry): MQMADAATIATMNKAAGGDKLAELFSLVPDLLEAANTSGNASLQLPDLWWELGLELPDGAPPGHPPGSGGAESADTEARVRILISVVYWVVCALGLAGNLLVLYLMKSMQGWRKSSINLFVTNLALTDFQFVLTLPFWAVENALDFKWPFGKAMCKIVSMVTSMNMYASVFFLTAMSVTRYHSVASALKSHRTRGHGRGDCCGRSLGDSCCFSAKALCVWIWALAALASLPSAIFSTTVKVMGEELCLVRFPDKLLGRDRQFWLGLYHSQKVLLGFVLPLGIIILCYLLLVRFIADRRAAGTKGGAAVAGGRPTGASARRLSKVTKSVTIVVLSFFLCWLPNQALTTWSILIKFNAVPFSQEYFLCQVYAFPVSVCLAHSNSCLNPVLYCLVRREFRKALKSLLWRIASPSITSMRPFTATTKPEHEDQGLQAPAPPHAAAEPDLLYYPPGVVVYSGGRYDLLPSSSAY

[18] = target: 5-hydroxytryptamine receptor 2A (Homo sapiens) (UniProt P28223); assay: Inhibition of serotonin 5-HT2A receptor (unknown origin) at 10 uM relative to control
[19] = target: 5-hydroxytryptamine receptor 6 (Homo sapiens) (UniProt P50406); assay: Inhibition of serotonin 5-HT6 receptor (unknown origin) at 10 uM relative to control
[20] = target: Muscarinic acetylcholine receptor M2 (Homo sapiens) (UniProt P08172); assay: Inhibition of muscarinic M2 receptor (unknown origin) at 10 uM relative to control
[21] = Unbound clearence in Wistar rat plasma at 10 mg/kg, ip measured upto 8 hrs post dose by LC-MS/MS analysis; format: ADME, organism-based; settings: in vivo
[22] = target: 5-hydroxytryptamine receptor 3A (Homo sapiens) (UniProt P46098); assay: Inhibition of serotonin 5-HT3 receptor (unknown origin) at 10 uM relative to control
[23] = target: Beta-1 adrenergic receptor (Homo sapiens) (UniProt P08588); assay: Inhibition of adrenergic beta-1 receptor (unknown origin) at 10 uM relative to control
[24] = target: D(1B) dopamine receptor (Homo sapiens) (UniProt P21918); assay: Inhibition of dopamine D5 receptor (unknown origin) at 10 uM relative to control
[25] = target: D(1A) dopamine receptor (Homo sapiens) (UniProt P21728); assay: Inhibition of dopamine D1 receptor (unknown origin) at 10 uM relative to control
[26] = target: Relaxin-3 receptor 2 (Homo sapiens) (UniProt Q8TDU9); assay: Antagonist activity at human RXFP4 expressed […]-K1 cells assessed as forskolin-induced cAMP accumulation at 100 uM incubated for 30 mins in presence of relaxin 3 relative to control; format: functional, cell-based; design: scale not given: the % may be the effect or the level left
[27] = target: Histamine H3 receptor (Homo sapiens) (UniProt Q9Y5N1); assay: Inhibition of histamine H3 receptor (unknown origin) at 10 uM relative to control
[28] = target: Histamine H2 receptor (Homo sapiens) (UniProt P25021); assay: Inhibition of histamine H2 receptor (unknown origin) at 10 uM relative to control
[29] = target: Alpha-1A adrenergic receptor (Homo sapiens) (UniProt P35348); assay: Inhibition of adrenergic alpha-1A receptor (unknown origin) at 10 uM relative to control
[30] = target: Sigma intracellular receptor 2 (Homo sapiens, UniProt Q5BJF2); assay: Inhibition of sigma-2 receptor (unknown origin)
[31] = target: Histamine H1 receptor (Homo sapiens) (UniProt P35367); assay: Inhibition of histamine H1 receptor (unknown origin) at 10 uM relative to control
[32] = target: Histamine H4 receptor (Homo sapiens) (UniProt Q9H3N8); assay: Inhibition of histamine H4 receptor (unknown origin) at 10 uM relative to control

Sequence of 5-hydroxytryptamine receptor 2C (Homo sapiens) (P28335 whole entry): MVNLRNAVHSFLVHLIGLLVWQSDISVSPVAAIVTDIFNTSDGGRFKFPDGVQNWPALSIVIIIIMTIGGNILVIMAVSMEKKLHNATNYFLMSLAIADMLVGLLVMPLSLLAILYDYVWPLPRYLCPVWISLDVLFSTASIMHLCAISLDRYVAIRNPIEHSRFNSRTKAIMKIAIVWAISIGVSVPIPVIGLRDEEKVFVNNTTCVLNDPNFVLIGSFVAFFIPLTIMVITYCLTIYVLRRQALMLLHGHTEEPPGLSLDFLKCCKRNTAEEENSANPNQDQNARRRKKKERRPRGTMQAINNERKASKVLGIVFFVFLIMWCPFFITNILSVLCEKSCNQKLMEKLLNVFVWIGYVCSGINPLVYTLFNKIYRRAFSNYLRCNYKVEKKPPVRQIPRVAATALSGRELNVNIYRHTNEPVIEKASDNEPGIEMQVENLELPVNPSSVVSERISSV
Sequence of Beta-1 adrenergic receptor (Homo sapiens) (P08588 whole entry, looked up): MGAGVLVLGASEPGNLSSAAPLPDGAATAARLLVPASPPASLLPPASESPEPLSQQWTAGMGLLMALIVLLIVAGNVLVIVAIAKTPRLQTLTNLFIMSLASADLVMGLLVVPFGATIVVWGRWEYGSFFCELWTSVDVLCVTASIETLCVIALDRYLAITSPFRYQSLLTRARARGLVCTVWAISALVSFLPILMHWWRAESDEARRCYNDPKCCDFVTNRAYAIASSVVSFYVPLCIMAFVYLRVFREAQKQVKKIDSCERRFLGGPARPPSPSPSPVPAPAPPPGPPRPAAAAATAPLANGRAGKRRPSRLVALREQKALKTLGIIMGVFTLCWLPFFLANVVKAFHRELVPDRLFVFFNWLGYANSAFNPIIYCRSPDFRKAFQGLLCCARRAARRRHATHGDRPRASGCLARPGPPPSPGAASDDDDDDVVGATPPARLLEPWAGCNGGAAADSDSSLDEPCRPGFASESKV
Sequence of 5-hydroxytryptamine receptor 7 (Homo sapiens) (P34969 whole entry): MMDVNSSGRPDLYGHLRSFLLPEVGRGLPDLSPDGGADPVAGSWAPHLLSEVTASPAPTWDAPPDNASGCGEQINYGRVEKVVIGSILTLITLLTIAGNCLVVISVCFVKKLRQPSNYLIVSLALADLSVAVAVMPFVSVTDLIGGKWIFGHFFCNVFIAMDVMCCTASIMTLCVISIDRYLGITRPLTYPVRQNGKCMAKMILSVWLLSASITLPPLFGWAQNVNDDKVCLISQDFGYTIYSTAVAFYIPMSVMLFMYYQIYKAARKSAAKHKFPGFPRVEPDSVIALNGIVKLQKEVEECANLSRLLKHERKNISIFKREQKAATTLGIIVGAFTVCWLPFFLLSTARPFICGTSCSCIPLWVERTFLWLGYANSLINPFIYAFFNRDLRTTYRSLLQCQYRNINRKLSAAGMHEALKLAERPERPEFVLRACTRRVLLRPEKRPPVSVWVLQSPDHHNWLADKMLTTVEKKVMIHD
Sequence of Beta-2 adrenergic receptor (Homo sapiens) (P07550 whole entry, looked up): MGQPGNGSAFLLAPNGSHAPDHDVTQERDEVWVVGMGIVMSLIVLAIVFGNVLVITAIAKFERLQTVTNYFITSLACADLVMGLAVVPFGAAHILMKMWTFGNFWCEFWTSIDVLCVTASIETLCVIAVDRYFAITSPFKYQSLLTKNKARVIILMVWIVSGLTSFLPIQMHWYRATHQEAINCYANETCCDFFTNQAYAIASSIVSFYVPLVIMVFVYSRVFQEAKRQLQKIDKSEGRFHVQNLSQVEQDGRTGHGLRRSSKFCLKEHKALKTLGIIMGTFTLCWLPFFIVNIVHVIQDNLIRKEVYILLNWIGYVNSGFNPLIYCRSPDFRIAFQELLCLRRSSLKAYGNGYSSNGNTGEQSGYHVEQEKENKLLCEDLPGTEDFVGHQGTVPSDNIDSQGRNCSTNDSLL
Sequence of Muscarinic acetylcholine receptor M2 (Homo sapiens) (P08172 whole entry): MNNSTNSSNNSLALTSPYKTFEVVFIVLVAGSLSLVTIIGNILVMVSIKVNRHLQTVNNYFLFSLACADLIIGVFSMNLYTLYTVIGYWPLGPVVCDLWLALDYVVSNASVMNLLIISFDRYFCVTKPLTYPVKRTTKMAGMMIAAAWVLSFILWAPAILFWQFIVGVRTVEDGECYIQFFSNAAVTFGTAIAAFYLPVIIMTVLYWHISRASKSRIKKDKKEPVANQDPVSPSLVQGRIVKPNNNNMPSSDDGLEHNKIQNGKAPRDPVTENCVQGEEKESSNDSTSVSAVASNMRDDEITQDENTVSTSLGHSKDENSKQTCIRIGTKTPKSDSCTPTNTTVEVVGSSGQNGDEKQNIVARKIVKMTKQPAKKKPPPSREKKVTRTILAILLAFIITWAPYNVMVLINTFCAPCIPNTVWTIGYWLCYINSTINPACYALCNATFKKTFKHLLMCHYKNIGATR
Sequence of Histamine H3 receptor (Homo sapiens) (Q9Y5N1 whole entry): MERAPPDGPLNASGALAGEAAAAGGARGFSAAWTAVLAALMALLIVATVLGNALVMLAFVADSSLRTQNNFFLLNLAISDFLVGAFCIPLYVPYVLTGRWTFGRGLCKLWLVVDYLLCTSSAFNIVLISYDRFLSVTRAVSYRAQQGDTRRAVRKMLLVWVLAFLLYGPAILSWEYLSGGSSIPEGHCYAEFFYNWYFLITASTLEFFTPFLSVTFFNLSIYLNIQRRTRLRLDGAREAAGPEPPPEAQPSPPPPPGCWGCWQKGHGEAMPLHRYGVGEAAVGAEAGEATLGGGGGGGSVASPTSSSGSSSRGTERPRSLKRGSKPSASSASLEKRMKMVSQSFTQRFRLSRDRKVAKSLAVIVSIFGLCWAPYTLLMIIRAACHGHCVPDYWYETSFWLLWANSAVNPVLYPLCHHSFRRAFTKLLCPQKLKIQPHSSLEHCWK
Sequence of D(1B) dopamine receptor (Homo sapiens) (P21918 whole entry): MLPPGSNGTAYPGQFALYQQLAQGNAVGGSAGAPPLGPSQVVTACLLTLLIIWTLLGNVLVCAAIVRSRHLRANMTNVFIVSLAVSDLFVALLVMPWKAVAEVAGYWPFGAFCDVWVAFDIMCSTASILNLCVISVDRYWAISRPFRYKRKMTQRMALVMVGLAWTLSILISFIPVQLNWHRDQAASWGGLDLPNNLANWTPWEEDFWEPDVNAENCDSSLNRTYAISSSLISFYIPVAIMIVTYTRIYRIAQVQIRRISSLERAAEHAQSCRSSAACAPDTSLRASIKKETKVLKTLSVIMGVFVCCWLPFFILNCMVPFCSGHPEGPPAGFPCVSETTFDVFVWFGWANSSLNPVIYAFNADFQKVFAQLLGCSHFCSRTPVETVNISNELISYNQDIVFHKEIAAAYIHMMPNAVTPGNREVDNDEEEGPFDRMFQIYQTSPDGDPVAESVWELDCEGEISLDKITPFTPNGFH
Sequence of Alpha-2C adrenergic receptor (Homo sapiens) (P18825 whole entry): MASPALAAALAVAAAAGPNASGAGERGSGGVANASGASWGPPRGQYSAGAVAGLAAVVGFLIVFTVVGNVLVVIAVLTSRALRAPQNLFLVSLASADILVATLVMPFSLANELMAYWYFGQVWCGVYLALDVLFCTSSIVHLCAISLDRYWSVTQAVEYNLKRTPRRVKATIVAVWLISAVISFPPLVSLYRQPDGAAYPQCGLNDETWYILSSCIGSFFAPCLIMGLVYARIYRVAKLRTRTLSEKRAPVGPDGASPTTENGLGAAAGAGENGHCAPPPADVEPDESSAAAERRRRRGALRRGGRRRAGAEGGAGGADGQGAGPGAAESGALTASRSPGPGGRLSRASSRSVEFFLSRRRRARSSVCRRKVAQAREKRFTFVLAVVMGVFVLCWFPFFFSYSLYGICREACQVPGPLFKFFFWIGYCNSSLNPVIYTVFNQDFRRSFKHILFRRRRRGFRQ
Sequence of 5-hydroxytryptamine receptor 2A (Homo sapiens) (P28223 whole entry): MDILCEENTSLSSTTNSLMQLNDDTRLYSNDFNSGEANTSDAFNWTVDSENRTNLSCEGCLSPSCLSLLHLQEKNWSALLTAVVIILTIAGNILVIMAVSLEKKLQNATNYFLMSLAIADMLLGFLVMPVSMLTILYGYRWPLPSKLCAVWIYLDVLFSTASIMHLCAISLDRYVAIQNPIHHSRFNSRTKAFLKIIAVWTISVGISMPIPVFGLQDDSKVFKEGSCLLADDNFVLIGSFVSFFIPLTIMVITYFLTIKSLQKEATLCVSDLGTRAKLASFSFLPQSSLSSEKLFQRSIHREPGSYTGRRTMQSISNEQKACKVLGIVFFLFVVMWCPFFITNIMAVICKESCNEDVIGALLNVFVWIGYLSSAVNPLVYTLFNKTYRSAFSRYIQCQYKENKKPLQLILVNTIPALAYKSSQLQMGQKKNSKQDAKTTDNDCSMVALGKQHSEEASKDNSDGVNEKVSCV
Sequence of Alpha-1D adrenergic receptor (Homo sapiens) (P25100 whole entry): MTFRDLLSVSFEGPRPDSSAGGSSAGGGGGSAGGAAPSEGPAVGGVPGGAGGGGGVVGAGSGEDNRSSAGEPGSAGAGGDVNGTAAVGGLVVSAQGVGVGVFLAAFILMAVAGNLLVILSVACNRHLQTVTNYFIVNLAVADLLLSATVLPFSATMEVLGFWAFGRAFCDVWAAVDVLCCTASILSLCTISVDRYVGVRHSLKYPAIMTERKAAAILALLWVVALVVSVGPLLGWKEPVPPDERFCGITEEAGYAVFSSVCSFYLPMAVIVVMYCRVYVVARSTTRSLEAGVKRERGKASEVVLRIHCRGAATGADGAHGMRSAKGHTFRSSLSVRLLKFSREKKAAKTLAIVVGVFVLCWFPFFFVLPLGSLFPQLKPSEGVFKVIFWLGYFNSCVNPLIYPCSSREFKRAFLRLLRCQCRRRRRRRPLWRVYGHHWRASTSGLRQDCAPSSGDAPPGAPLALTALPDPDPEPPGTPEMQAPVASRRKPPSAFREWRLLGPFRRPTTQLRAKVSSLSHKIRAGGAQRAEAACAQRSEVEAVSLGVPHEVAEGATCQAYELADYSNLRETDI
Sequence of Sigma intracellular receptor 2 (Q5BJF2 whole entry): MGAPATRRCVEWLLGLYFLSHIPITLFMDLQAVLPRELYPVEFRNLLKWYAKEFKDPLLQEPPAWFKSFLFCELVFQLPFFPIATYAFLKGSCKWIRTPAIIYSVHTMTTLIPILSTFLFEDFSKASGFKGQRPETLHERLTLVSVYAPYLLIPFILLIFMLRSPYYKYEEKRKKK

## O=C(Nc1ccc(-c2nc(-c3ccc(Cl)cc3)no2)cc1)C1CC(=O)N(Cc2ccco2)C1 (configuration not stated)
[1]
  inhibition: < 50%
[2]
  inhibition: < 50%
[3]
  inhibition: < 50%
[4]
  Ratio: 2.3
[5]
  inhibition: < 50%
[6]
  Activity: Active
[7]
  inhibition: 53%
[8]
  inhibition: < 50%
[9]
  Papp: 1.3 10^-6 cm/s
[10]
  Activity: Active
[11]
  Activity: Active
[12]
  inhibition: < 50%
[13]
  t1/2: 4.9 h
[14]
  inhibition: < 50%
[15]
  Tmax: 2 h
[16]
  Cmax: 1550 ng/mL
[17]
  IC50: 4.52 µM
[18]
  inhibition: < 50%
[19]
  inhibition: < 50%
[20]
  inhibition: 51%
[21]
  CL free: 43.8 mL/min/kg
[22]
  inhibition: < 50%
[23]
  inhibition: < 50%
[24]
  inhibition: < 50%
[25]
  inhibition: < 50%
[26]
  Activity: < 30%
[27]
  inhibition: < 50%
[28]
  inhibition: < 50%
[29]
  inhibition: < 50%
[30]
  Ki: 3.2 µM
[31]
  inhibition: < 50%
[32]
  inhibition: < 50%
